# Measured values: EP2951180B1, “2,6,7,8 SUBSTITUTED PURINES AS HDM2 INHIBITORS” (Merck Sharp & Dohme Corp., priority 2013, dated 2014)
# pIC50: −log10 of the molar value.
# Target: T1, HDM2 (Homo sapiens, UniProt Q00987)
# T1 construct: Thioredoxin (N); made in house; host or cells: E. coli strain BL21(DE3)Rosetta
# Test: FRET assay (HDM2 inhibition; method not described in this part)
# Format: binding
# Settings: Table 1
# T1 sequence (Q00987 17-125): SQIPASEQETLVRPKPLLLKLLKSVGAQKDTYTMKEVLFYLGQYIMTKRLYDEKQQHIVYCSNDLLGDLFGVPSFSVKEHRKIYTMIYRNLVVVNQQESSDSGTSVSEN
row,SMILES,pIC50
1,"COc1ccc(C)nc1-c1nc2nc(C(=O)O)nc(N[C@H](C)C3CCC3)c2n1Cc1ccc(C(F)(F)F)cc1 [Example 1.23, 6-{[(1R)-1-cyclobutylethyl]amino}-8-(3-methoxy-6-methylpyridin-2-yl)-7-[4-(trifluoromethyl)benzyl]-7H-purine-2-carboxylic acid]",7.88
2,"C[C@@H](Nc1nc(C(=O)O)nc2nc(-c3ccc(S(C)(=O)=O)cc3)n(Cc3ccc(C(F)(F)F)cc3)c12)C1CCC1 [Example 1.24, 6-{[(1R)-1-cyclobutylethyl]amino}-8-[4-(methylsulfonyl)phenyl]-7-[4-(trifluoromethyl)benzyl] - 7H-purine-2-carboxylic acid]",6.95
3,"Cc1cc2ncccc2cc1-c1nc2nc(C(=O)O)nc(N[C@H](C)C3CC3)c2n1Cc1ccc(C(F)(F)F)cc1 [Example 1.25, 6-{[(1R)-1-cyclopropylethyl]amino} -8-(7-methylquinolin-6-yl)-7-[4-(trifluoromethyl)benzyl]-7H-purine-2-carboxylic acid]",5.97
4,"C[C@@H](Nc1nc(C(=O)O)nc2nc(-c3cc(-c4ccccc4)ccn3)n(Cc3ccc(C(F)(F)F)cc3)c12)C1CCC1 [Example 1.26, 6-{[(1R)-1-cyclobutylethyl]amino}-8-(4-phenylpyridin-2-yl)-7-[4-(trifluoromethyl)benzyl] - 7H-purine-2-carboxylic acid]",7.92
5,"C[C@@H](Nc1nc(C(=O)O)nc2nc(-c3cc(C(C)(C)O)ccn3)n(Cc3ccc(C(F)(F)F)cc3)c12)C1CCC1 [Example 1.27, 6-{[(1R)-1-cyclobutylethyl]amino}-8-[4-(1-hydroxy-1-methylethyl)pyridin-2-yl]-7-[4-(trifluoromethyl)benzyl]-7H-purine-2-carboxylic acid]",8.03
6,"CC(O)c1ccnc(-c2nc3nc(C(=O)O)nc(N[C@H](C)C4CCC4)c3n2Cc2ccc(C(F)(F)F)cc2)c1 (stereo partly drawn) [Example 1.28, 6-{[(1R)-1-cyclobutylethyl]amino}-8-[4-(1-hydroxyethyl)pyridin-2-yl]-7-[4-(trifluoromethyl)benzyl]-7H-purine-2-carboxylic acid]",7.91
7,"CCc1ccc(O)c(-c2nc3nc(C(=O)O)nc(N[C@H](C)C4CCC4)c3n2Cc2ccc(C(F)(F)F)cc2)c1 [Example 1.29, 6-{[(1R)-1-cyclobutylethyl]amino}-8-(5-ethyl-2-hydroxyphenyl)-7-[4-(trifluoromethyl)benzyl]-7H-purine-2-carboxylic acid]",7.34
8,"COCOc1ccc(C(C)C)cc1-c1nc2nc(C(=O)O)nc(N[C@H](C)C3CCC3)c2n1Cc1ccc(C(F)(F)F)cc1 [Example 1.30, 6-{[(1R)-1-cyclobutylethyl]amino}-8-[2-(methoxymethoxy)-5-(1-methylethyl)phenyl]-7-[4-(trifluoromethyl)benzyl]-7H-purine-2-carboxylic acid]",7.26
9,"CCc1ccc(OC)c(-c2nc3nc(C(=O)O)nc(N[C@H](C)C4CCC4)c3n2Cc2ccc(C(F)(F)F)cc2)c1 [Example 1.31, 6-{[(1R)-1-cyclobutylethyl]amino}-8-(5-ethyl-2-methoxyphenyl)-7-[4-(trifluoromethyl)benzyl]-7H-purine-2-carboxylic acid]",7.73
10,"CCOc1ccc(CC)cc1-c1nc2nc(C(=O)O)nc(N[C@H](C)C3CCC3)c2n1Cc1ccc(C(F)(F)F)cc1 [Example 1.32, 6-{[(1R)-1-cyclobutylethyl]amino}-8-(2-ethoxy-5-ethylphenyl)-7-[4-(trifluoromethyl)benzyl] - 7H-purine-2-carboxylic acid]",7.63
11,"CCOc1ccc(C(F)(F)F)cc1-c1nc2nc(C(=O)O)nc(N[C@H](C)C3CCC3)c2n1Cc1ccc(C(F)(F)F)cc1 [Example 1.33, 6-{[(1R)-1-cyclobutylethyl]amino}-8-[2-ethoxy-5-(trifluoromethyl)phenyl]-7-[4-(trifluoromethyl)benzyl] - 7H-purine-2-carboxylic acid]",7.70
12,"COc1ccc(C(F)(F)F)cc1-c1nc2nc(C(=O)O)nc(N[C@H](C)C3CCC3)c2n1Cc1ccc(C(F)(F)F)cc1 [Example 1.35, 6-{[(1R)-1-cyclobutylethyl]amino}-8-[2-methoxy-5-(trifluoromethyl)phenyl]-7-[4-(trifluoromethyl)benzyl] - 7H-purine-2-carboxylic acid]",7.56
13,"CCc1ccc(OCOC)c(-c2nc3nc(C(=O)O)nc(N[C@H](C)C4CCC4)c3n2Cc2ccc(C(F)(F)F)cc2)c1 [Example 1.36, 6-{[(1R)-1-cyclobutylethyl]amino}-8-[5-ethyl-2-(methoxymethoxy)pheny 1]-7-[4-(trifluoromethyl)benzyl]-7H-purine-2-carboxylic acid]",7.64
14,"C[C@@H](Nc1nc(C(=O)O)nc2nc(-c3cccc(C(N)=O)c3)n(Cc3ccc(C(F)(F)F)cc3)c12)C1CCC1 [Example 1.37, 8-(3-carbamoylphenyl)-6-{[(1R)-1-cyclobutylethyl]amino}-7-[4-(trifluoromethyl)benzyl]-7H-purine-2-carboxylic acid]",7.31
15,"C[C@@H](Nc1nc(C(=O)O)nc2nc(-c3cc(C(F)(F)F)ccc3F)n(Cc3ccc(C(F)(F)F)cc3)c12)C1CCC1 [Example 1.38, 6-{[(1R)-1-cyclobutylethyl]amino}-8-[2-fluoro-5-(trifluoromethyl)phenyl] - 7-[4-(trifluoromethyl)benzyl]-7H-purine-2-carboxylic acid]",7.56
16,"Cc1ccc(N(C)C)cc1-c1nc2nc(C(=O)O)nc(N[C@H](C)C3CCC3)c2n1Cc1ccc(C(F)(F)F)cc1 [Example 1.39, 6-{[(1R)-1-cyclobutylethyl]amino}-8-[5-(dimethylamino)-2-methylphenyl]-7-[4-(trifluoromethyl)benzyl]-7H-purine-2-carboxylic acid]",7.23
17,"CCc1ccc(F)c(-c2nc3nc(C(=O)O)nc(N[C@H](C)C4CCC4)c3n2Cc2ccc(C(F)(F)F)cc2)c1 [Example 1.40, 6-{[(1R)-1-cyclobutylethyl]amino}-8-(5-ethyl-2-fluorophenyl)-7-[4-(trifluoromethyl)benzyl]-7H-purine-2-carboxylic acid]",7.47
18,"COc1ccc(C(C)C)cc1-c1nc2nc(C(=O)O)nc(N[C@H](C)C3CCC3)c2n1Cc1ccc(C(F)(F)F)cc1 [Example 1.41, 6-{[(1R)-1-cyclobutylethyl]amino}-8-[2-methoxy-5-(1-methylethyl)phenyl]-7-[4-(trifluoromethyl)benzyl]-7H-purine-2-carboxylic acid]",7.56
19,"C[C@@H](Nc1nc(C(=O)O)nc2nc(-c3cc(N(C)C)ccc3O)n(Cc3ccc(C(F)(F)F)cc3)c12)C1CCC1 [Example 1.42, 6-{[(1R)-1-cyclobutylethyl]amino}-8-[5-(dimethylamino)-2-hydroxyphenyl]-7-[4-(trifluoromethyl)benzyl]-7H-purine-2-carboxylic acid]",7.11
20,"CCOc1ccnc(-c2nc3nc(C(=O)O)nc(N[C@H](C)C4CCC4)c3n2Cc2ccc(C(F)(F)F)cc2)c1 [Example 1.43, 6-{[(1R)-1-cyclobutylethyl]amino}-8-(4-ethoxypyridin-2-yl)-7-[4-(trifluoromethyl)benzyl] - 7H-purine-2-carboxylic acid]",7.93
21,"C[C@@H](Nc1nc(C(=O)O)nc2nc(-c3cc(Cl)ccn3)n(Cc3ccc(C(F)(F)F)cc3)c12)C1CCC1 [Example 1.44, 8-(4-chloropyridin-2-yl)-6-{[(1R)-1-cyclobutylethyl]amino}-7-[4-(trifluoromethyl)benzyl] - 7H-purine-2-carboxylic acid]",7.78
